# PubChem BioAssay (NCI)
#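 1) Cells in 96-well plates. 2) Compound, 48 h, 5 concentrations. 3) Linear interpolation between surrounding doses. 4) Unreached endpoint = highest concentration. GI50 marks 50% less growth. TGI: total growth inhibition.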
# Legend:
# Test in all cases: NCI-60 cell line screen, 48 h
# SW-620 colon = test system: SW-620 colon
# HCT-116 colon = test system: HCT-116 colon
# LOX IMVI melanoma = test system: LOX IMVI melanoma
# TK-10 renal = test system: TK-10 renal
# NCI-H23 lung = test system: NCI-H23 lung
# UO-31 renal = test system: UO-31 renal
# NCI/ADR-RES ovarian = test system: NCI/ADR-RES ovarian
# SK-MEL-28 melanoma = test system: SK-MEL-28 melanoma
# MOLT-4 leukemia = test system: MOLT-4 leukemia
# MDA-MB-435 = test system: MDA-MB-435
# M14 melanoma = test system: M14 melanoma
# SK-OV-3 ovarian = test system: SK-OV-3 ovarian
# SF-268 CNS = test system: SF-268 CNS
# ACHN renal = test system: ACHN renal
# HL-60(TB) leukemia = test system: HL-60(TB) leukemia
# CCRF-CEM leukemia = test system: CCRF-CEM leukemia
# UACC-257 melanoma = test system: UACC-257 melanoma
# RXF 393 renal = test system: RXF 393 renal
# HCT-15 colon = test system: HCT-15 colon
# SF-295 CNS = test system: SF-295 CNS
# HCC-2998 colon = test system: HCC-2998 colon
# HOP-92 NSCLC = test system: HOP-92 NSCLC
# BT-549 breast = test system: BT-549 breast
# MCF7 breast = test system: MCF7 breast
# SK-MEL-2 melanoma = test system: SK-MEL-2 melanoma
# SK-MEL-5 melanoma = test system: SK-MEL-5 melanoma
# SN12C renal = test system: SN12C renal
# COLO 205 colon = test system: COLO 205 colon
# RPMI-8226 leukemia = test system: RPMI-8226 leukemia
# HS 578T breast = test system: HS 578T breast
# HT29 colon = test system: HT29 colon
# OVCAR-5 ovarian = test system: OVCAR-5 ovarian
# DU-145 prostate = test system: DU-145 prostate
# CAKI-1 renal = test system: CAKI-1 renal
# IGROV1 ovarian = test system: IGROV1 ovarian
# SNB-19 CNS = test system: SNB-19 CNS
# NCI-H522 lung = test system: NCI-H522 lung
# NCI-H460 lung = test system: NCI-H460 lung
# MALME-3M melanoma = test system: MALME-3M melanoma
# A549 NSCLC = test system: A549 NSCLC
# OVCAR-4 ovarian = test system: OVCAR-4 ovarian
# MDA-MB-231 breast = test system: MDA-MB-231 breast
# U251 CNS = test system: U251 CNS
# OVCAR-8 ovarian = test system: OVCAR-8 ovarian
# HOP-62 NSCLC = test system: HOP-62 NSCLC
# 786-0 renal = test system: 786-0 renal
# T-47D breast = test system: T-47D breast
# K-562 leukemia = test system: K-562 leukemia
# NCI-H226 lung = test system: NCI-H226 lung
# OVCAR-3 ovarian = test system: OVCAR-3 ovarian
# EKVX NSCLC = test system: EKVX NSCLC
# SNB-75 CNS = test system: SNB-75 CNS
# SF-539 CNS = test system: SF-539 CNS
# PC-3 prostate = test system: PC-3 prostate
# KM12 colon = test system: KM12 colon
# UACC-62 melanoma = test system: UACC-62 melanoma
compound,measurement,setting,value
ClCCCN(CCCCl)c1ccc(C=Nc2cccc(Cl)c2)cc1,TGI,SW-620 colon,> 100 µM
same,TGI,HCT-116 colon,> 66.6 µM
same,TGI,LOX IMVI melanoma,> 100 µM
same,TGI,TK-10 renal,26.6 µM
same,TGI,NCI-H23 lung,53.5 µM
same,TGI,UO-31 renal,88.3 µM
same,TGI,NCI/ADR-RES ovarian,52.5 µM
same,TGI,SK-MEL-28 melanoma,> 100 µM
same,TGI,MOLT-4 leukemia,> 67.4 µM
same,TGI,MDA-MB-435,> 80.5 µM
same,TGI,M14 melanoma,> 76.3 µM
same,TGI,SK-OV-3 ovarian,> 100 µM
same,TGI,SF-268 CNS,> 71.1 µM
same,TGI,ACHN renal,> 100 µM
same,TGI,HL-60(TB) leukemia,58.4 µM
same,TGI,CCRF-CEM leukemia,65.2 µM
same,TGI,UACC-257 melanoma,> 77 µM
same,TGI,RXF 393 renal,> 52.7 µM
same,TGI,HCT-15 colon,> 100 µM
same,TGI,SF-295 CNS,> 82.4 µM
same,TGI,HCC-2998 colon,> 100 µM
same,TGI,HOP-92 NSCLC,> 100 µM
same,GI50,BT-549 breast,71.2 µM
same,TGI,BT-549 breast,> 100 µM
same,TGI,MCF7 breast,> 70.4 µM
same,TGI,SK-MEL-2 melanoma,> 100 µM
same,TGI,SK-MEL-5 melanoma,36.7 µM
same,TGI,SN12C renal,> 79.7 µM
same,TGI,COLO 205 colon,> 100 µM
same,TGI,RPMI-8226 leukemia,55 µM
same,TGI,HS 578T breast,71.8 µM
same,TGI,HT29 colon,> 100 µM
same,TGI,OVCAR-5 ovarian,> 91.4 µM
same,TGI,DU-145 prostate,> 44.6 µM
same,TGI,CAKI-1 renal,11.8 µM
same,TGI,IGROV1 ovarian,> 100 µM
same,TGI,SNB-19 CNS,> 100 µM
same,TGI,NCI-H522 lung,> 100 µM
same,TGI,NCI-H460 lung,> 82.1 µM
same,TGI,MALME-3M melanoma,44.3 µM
same,TGI,A549 NSCLC,> 79.7 µM
same,TGI,OVCAR-4 ovarian,> 79.5 µM
same,TGI,MDA-MB-231 breast,> 73.7 µM
same,TGI,U251 CNS,> 89.1 µM
same,TGI,OVCAR-8 ovarian,56.5 µM
same,TGI,HOP-62 NSCLC,> 75.1 µM
same,TGI,786-0 renal,> 67.2 µM
same,TGI,T-47D breast,44.8 µM
same,TGI,K-562 leukemia,> 83.9 µM
same,TGI,NCI-H226 lung,8.67 µM
same,TGI,OVCAR-3 ovarian,57.9 µM
same,TGI,EKVX NSCLC,> 100 µM
same,TGI,SNB-75 CNS,> 100 µM
same,TGI,SF-539 CNS,> 100 µM
same,TGI,PC-3 prostate,50.7 µM
same,TGI,KM12 colon,> 80.6 µM
same,TGI,UACC-62 melanoma,15.4 µM
